Assay results taken from US12679855B2, “Inhibitors of the enzyme enolase for precision oncology” (Board of Regents, The University of Texas System, priority 2019, dated 2026).
pIC50: −log10 of the molar value. “And” between values parts separate entries of the source, which are not always exact repeats. Equal entries are not always repeated. Where two headings read alike, the source gives them in different places.

How the values were obtained:
[1] = test system: D502 glioma cell line (ENO1-heterozygously deleted); assay: Enolase inhibitor sensitivity (crystal violet), ENO1-heterozygously deleted D502 cells; assay type: cell-based; settings: DMEM 10% FBS, terminal cell density by crystal violet after 7 days
Procedure: (§1) Enolase inhibitor sensitivity experiments were performed, using DMEM containing 10% FBS cell culture media. IC50 (expressed in nM) were calculated based on terminal cell density measured by crystal violet after 7 days of growth. […] Left table: POMHEX. Middle table: HEX. Right table: Ratio of sensitivity to POMHEX versus HEX for each cell line.
(§2) (FIG. 19A) ENO1-deleted (D423, red), ENO1-isogenically rescued (D423 ENO1, blue), and ENO1-WT (LN319, grey) cells were treated POMHEX in RPMI media under the same experimental conditions used for NCI-60 screening. […] IC50 (expressed in nM) were calculated based on terminal cell density measured by crystal violet.
(§3) Cell proliferation assay.

[2] = test system: U343 glioma cell line (ENO1-heterozygously deleted); assay: Enolase inhibitor sensitivity (crystal violet), ENO1-heterozygously deleted U343 cells; assay type: cell-based; settings: DMEM 10% FBS, terminal cell density by crystal violet after 7 days
Procedure: as §1, §2, §3

[3] = test system: glioma cell lines with different ENO1-deletion status; assay: Enolase inhibitor sensitivity across glioma cell lines; assay type: cell-based
Procedure: as §1, §2

[4] = Human plasma stability assay (31P NMR); assay type: in vitro ADME
Procedure: VCY17 (left) and POMHEX (right) were prepared at 1.5 mM and added to human plasma in an NMR tube with 10% D2O for signal lock. […] As expected, emergence of the second peak after 1 h is due to hydrolysis of the acetyl-protected hydroxamate; the nitroimidazole moiety remains attached (mono-ester phosphonates always show ^31P-chemical shifts <20 ppm); intact phosphoramidate mixed ester was verified by ^31P-^1H HSQC showing resonance with protons at ~5 ppm (—CH2—O—P) and 4 ppm (—CH2—NH—P). Note that VCY17 and de-acetylated VCY17 can come out as doublets: this is because two chiral centers (Phosphorus and C1) yield cis/trans diasteromers.
VCY13 (FIG. 20A) and VCY31 (FIG. 20B) are thioesterase-labile phosphonoamidates. ENO1-deleted (D423, red), ENO1-isogenically rescued (D423 ENO1, blue), and ENO1-WT (LN319, grey) cells were treated with either VCY13 or VCY31 for 5 days. […] (FIG. 20B) VCY31 is a structurally similar pro-drug that uses 2-picolylamine, rather than benzylamine, as a second pro-drug leave group. […] 4 mM VCY31 was dissolved in 80% human plasma, 20% D2O and monitored by ^31P NMR (121 MHz) for 15 hours. Intact VCY31 has a ^31P NMR shift of 33 ppm. Hydrolysis of the thioester begins to occur after 2 hours, as indicated by the emergence of a peak at ~16 ppm.
Human plasma stability assay. POMHEX and VCY17 (1.5 mM) were added to human plasma (Sigma #P9523) in an NMR tube with 10% D2O for signal lock. ^31P NMR measurements (31P CPD, 1000 transients) were conducted every 30 minutes on the first day and every 24 hours, for 4 days afterwards.

[5] = Ex-vivo stability in human blood; assay type: in vitro ADME
Procedure: FIGS. 3A-3D show the ex-vivo half-life of POMHEX in biological fluids may limit its clinical utility. (FIG. 3A) Ex-vivo half-life of POMHEX in biological fluids. POMHEX has a half-life of ~30 seconds in mouse plasma. The degradation may be prevented by heat inactivation or de-proteinatization with acetonitrile. […] (FIG. 3B) Plasma concentration of HEX and HemiPOMHEX following a single intravenous injection of POMHEX, as a function of time. Mice were injected IV with 10 mg/kg POMHEX and sacrificed at the indicated time points. Each data point represents a single animal. Note, POMHEX itself was below the detection limit (100 nM) even at the earliest time point. It is believed that this may not be reflective of the physiological state as separation of plasma from hematocrit is required for the measurements, which adds approximately 6 minutes of processing time during which POMHEX may be degraded to HemiPOMHEX. […] (FIG. 3D) Quantification of POMHEX and its metabolites in mouse organs 24 hrs. after a single intravenous injection of 10 mg/kg POMHEX.
FIGS. 16A-16C show the ex-vivo half-life of POMHEX in biological fluids limits its clinical utility. […] HEX and HemiPOMHEX were not measured at concentrations higher than 10 mg/kg due to the hazards associated with the derivatization agent, trimethylsilyl-diazomethane in hexane (TMS-DAM). […]

[6] = Plasma and organ levels after injection of POMHEX in mice; assay type: in vivo, mouse
Procedure: FIGS. 3A-3D show the ex-vivo half-life of POMHEX in biological fluids may limit its clinical utility. (FIG. 3A) Ex-vivo half-life of POMHEX in biological fluids. POMHEX has a half-life of ~30 seconds in mouse plasma. The degradation may be prevented by heat inactivation or de-proteinatization with acetonitrile. […] (FIG. 3B) Plasma concentration of HEX and HemiPOMHEX following a single intravenous injection of POMHEX, as a function of time. Mice were injected IV with 10 mg/kg POMHEX and sacrificed at the indicated time points. Each data point represents a single animal. Note, POMHEX itself was below the detection limit (100 nM) even at the earliest time point. It is believed that this may not be reflective of the physiological state as separation of plasma from hematocrit is required for the measurements, which adds approximately 6 minutes of processing time during which POMHEX may be degraded to HemiPOMHEX. (FIG. 3C) The results of the same experiment but performed with an intraperitoneal injection of POMHEX, at a dose of 40 mg/kg. (FIG. 3D) Quantification of POMHEX and its metabolites in mouse organs 24 hrs. after a single intravenous injection of 10 mg/kg POMHEX.
FIGS. 16A-16C show the ex-vivo half-life of POMHEX in biological fluids limits its clinical utility. […] Lower levels of carboxylesterase in human blood results in a longer half-life of POMHEX. (FIG. 16B) Dramatically higher drug exposure in non-human primates as compared to mice following IV injections of POMHEX. Mice (n=3; pooled) and monkeys (n=3; pooled) were injected IV with POMHEX at 10 mg/kg and 2.5 mg/kg, respectively. […] POMHEX was undetectable (<50 nM) even at the earliest time point, in both monkey and mouse experiments; at 98 nM, POMHEX was detectable 1-minute post-injection, but at no time thereafter. […] HEX and HemiPOMHEX were not measured at concentrations higher than 10 mg/kg due to the hazards associated with the derivatization agent, trimethylsilyl-diazomethane in hexane (TMS-DAM). (FIG. 16C) Schematic of POMHEX in circulation when administered IP or IV in mice. […]

[7] = Plasma levels after IV injection of POMHEX in monkeys; assay type: in vivo, monkey
Procedure: FIGS. 16A-16C show the ex-vivo half-life of POMHEX in biological fluids limits its clinical utility. […] Lower levels of carboxylesterase in human blood results in a longer half-life of POMHEX. (FIG. 16B) Dramatically higher drug exposure in non-human primates as compared to mice following IV injections of POMHEX. Mice (n=3; pooled) and monkeys (n=3; pooled) were injected IV with POMHEX at 10 mg/kg and 2.5 mg/kg, respectively. […] POMHEX was undetectable (<50 nM) even at the earliest time point, in both monkey and mouse experiments; at 98 nM, POMHEX was detectable 1-minute post-injection, but at no time thereafter. […] HEX and HemiPOMHEX were not measured at concentrations higher than 10 mg/kg due to the hazards associated with the derivatization agent, trimethylsilyl-diazomethane in hexane (TMS-DAM). (FIG. 16C) Schematic of POMHEX in circulation when administered IP or IV in mice. Due to high levels of plasma carboxylesterase, a gradient decrease in POMHEX away from the site of injection is accompanied by a concurrent increase in HemiPOMHEX.

[8] = test system: D423 (ENO1-deleted) glioma cells; assay: Cell proliferation assay (crystal violet) in ENO1-deleted glioma cells; assay type: cell-based; settings: 4 days

SMILES: CC(C)(C)C(=O)OCOP(=O)(OCOC(=O)C(C)(C)C)C1CCCN(O)C1=O (stereo not shown) [POMHEX]
- pIC50 [1]: 7.09
- pIC50 [2]: 6.25
- specificity towards ENO1-heterozygous deleted cells compared to normal tissue [3]: 10 fold
- sensitivity greater in RPMI as compared to DMEM media ([3]; D423, D423 ENO1, LN319 cells, NCI-60 screening conditions): ~ 3 fold
- potency of POMHEX greater than HEX, on average ([3]; average across glioma cell lines): ~ 75 fold
- time of hydrolysis to HemiPOMHEX in human plasma ([4]; 1.5 mM, human plasma with 10% D2O, 31P NMR): less than 1 h
- longevity of intact POMHEX ([4]; FIG. 15): 2 h
- stability in human blood relative to mouse plasma [5]: at least 20 times
- level in mouse organs ([6]; 24 hrs. after a single intravenous injection of 10 mg/kg POMHEX): below the quantification limit (BQL)
- plasma concentration of POMHEX, mice ([6]; IV 10 mg/kg, even at the earliest time point, 10 mg/kg): < 100 nM and < 50 nM
- plasma concentration of POMHEX 1-minute post-injection ([7]; 1-minute post-injection, species not stated): 98 nM
- potentially higher toxicity in monkey ([7]; IV 2.5 mg/kg): did not materialize
- plasma concentration of POMHEX, monkeys ([7]; IV 2.5 mg/kg, even at the earliest time point): < 50 nM
- pIC50 ([8]; 1% O2, read-out: IC50 for D423 ENO1-homozygously deleted glioma cells under 1% O2 hypoxia): ~7.05 and 7.08
- potency decrease under 1% O2 ([8]; 1% O2 versus 21% O2): ~ 2.5 fold
- pIC50 ([8]; normoxia (21% O2), read-out: IC50 for D423 ENO1-homozygously deleted glioma cells under normoxia): ~7.40 and 7.51
